{
  "source": "patent US20100016211A1",
  "about": "“Treatment of Melanoma With Alpha Thymosin Peptides” (SciClone Pharmaceuticals, Inc., priority 2007, published 2010)",
  "key": {"[1]": {"test_system": "stage IV metastatic melanoma", "test": "Phase 2 multi-center open-label study: overall survival (OS)", "type": "in vivo, human", "conditions": "regimen with TA1 but without IFN alpha vs both IFN alpha and TA1", "excerpt": "(§1) This phase 2 multi-center, open-label study enrolled 488 patients with stage IV metastatic melanoma at 64 European clinical sites. The trial was designed to evaluate different dose levels of Thymosin alpha 1 (TA1). This study was in combination with DTIC chemotherapy, with and without low-dose interferon alpha, as a first-line treatment for malignant melanoma. Most patients enrolled in the trial had liver and other metastases and the remaining patients had lung metastases and skin or lymph node metastases.\n(§2) A total of 488 patients (pts) (63% M1; 24% M1b; 13% M1a) were randomised into the study from 64 European sites. Demographic and baseline characteristics are shown in table 1 wherein DIT=DTIC/IFN alpha,/TA1, DT=DTIC/TA1, T=TA1, DI=DTIC/IFN alpha and ECOG PS is a patient's health performance status (PS) according to the Eastern Cooperative Oncology Group (ECOG)."}, "[2]": {"test_system": "stage IV metastatic melanoma", "test": "Phase 2 multi-center open-label study: progression free survival (PFS)", "type": "in vivo, human", "conditions": "regimen with TA1 but without IFN alpha vs both IFN alpha and TA1", "excerpt": "as §1, §2"}, "Melan-A/MART-1": {"test_system": "Melan-A/MART-1", "test": "Melanoma antigen expression in B-16 cells by confocal microscopy", "type": "cell-based, mouse", "excerpt": "(§3) Thymosin alpha 1 was able to up-regulate melanoma-specific antigens melan-A and MART-1 on the cell surface of mouse B-16 melanoma cells."}, "[3]": {"test": "Phase 2 multi-center open-label study: adverse events and tolerability", "design": "species or system human", "conditions": "in vivo", "excerpt": "as §1, §2"}, "Gp100": {"test_system": "Gp100", "test": "Melanoma antigen expression in B-16 cells by confocal microscopy", "type": "cell-based", "conditions": "B-16 mouse melanoma cells, 24 h treatment, 50 μg/ml; control: +", "excerpt": "as §3"}, "[4]": {"test_system": "stage IV metastatic melanoma", "test": "Phase 2 multi-center open-label study: tumor response (CR, PR, RR)", "type": "in vivo, human", "conditions": "regimen with TA1 but without IFN alpha vs both IFN alpha and TA1", "excerpt": "as §1, §2"}},
  "note": "Ends that are not written are not given here.",
  "data": [
    {"substance": "thymosin alpha 1 (Ac-SDAAVDTSSEITTKDLKEKKEVVEEAEN; UniProt P06454 2-29, looked up)", "values": [
      {"measurement": "Median survival rate (in words)", "setting": "[1]", "value": "higher median survival rate"},
      {"measurement": "Progression-free survival (in words)", "setting": "[2]", "value": "higher progression-free survival"},
      {"measurement": "Melan-A/MART-1 expression", "setting": "Melan-A/MART-1; B-16 mouse melanoma cells, 24 h treatment, 50 μg/ml, control: +", "value": "++ ↑"},
      {"measurement": "Melanoma-specific antigens melan-A and MART-1 on the cell surface (in words)", "setting": "Melan-A/MART-1; mouse B-16 melanoma cells", "value": "up-regulate"},
      {"measurement": "Serious adverse events attributed to the drug (in words)", "setting": "[3]", "value": "no serious adverse events attributed to the drug"},
      {"measurement": "Gp100 expression", "setting": "Gp100", "value": "± ↓"},
      {"measurement": "Overall tumor response (in words)", "setting": "[4]", "value": "higher overall tumor response"}
    ]}
  ]
}
